Here are results for 4 molecules from patent US20140057915A1, “KINASE INHIBITORS” (TOPIVERT PHARMA LIMITED, priority 2012, published 2014).

In series [1] the target is T1, GSK3α (Homo sapiens, UniProt P49840). As to the kind of experiment: GSK 3α enzyme inhibition (FRET), Method 1. The series is classed as biochemical. The note with it: Table 4a1. The gist of the method: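 Z-LYTE FRET format. Enzyme (500 ng/mL stock) + compound (stocks 4–0.004 μg/mL), 2 hr RT; add peptide (8 μM stock) + ATP (40 μM stock), 1 hr; protease 1 hr; read donor/acceptor emission ratio.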

Another series has as its system d-U937 cells. The experiment in a line: Cell viability: MTT assay. In kind it is cell-based, human. The note with it: 1 μg/mL. The gist of the method: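 MTT reduction (1 h, DMSO solubilisation, A550) measured after compound treatment at 1 or 10 μg/mL of differentiated U937 cells for 4 h (5% FCS RPMI1640) or 24 h (10% FCS). Percentage viability loss computed relative to 0.5% DMSO vehicle, with increases tabulated as negative values.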
(In general: Formazan colour is commonly taken as a measure of viable cells.)

Series [2] relates to TNFα release, d-U937 cells. The experiment in a line: LPS-induced TNFα release in d-U937 cells. The series is classed as cell-based. The following applies: Homo sapiens, dU937; for EC50: relative to 10 μg/mL BIRB796, Table 4c1, read-out: LPS Induced Release of Cytokine in d-U937 Cells, TNFα REC50; for IC50: Table 4c2, different laboratory, read-out: IC50 Values for Inhibition of Cytokine Release, dU937 cells, TNFα. The gist of the method: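 Sandwich ELISA quantifies cytokine in supernatants after 4 hr LPS challenge (0.1 μg/mL) of PMA-differentiated (100 ng/mL, 48–72 hr) U937 macrophages given compound 2 hr beforehand. REC50 derived from concentration-response curve, inhibition calculated relative to vehicle.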

A further series concerns the target Syk (Homo sapiens, UniProt P43405). The experiment in a line: Syk enzyme inhibition (FRET). In kind it is biochemical. The gist of the method:
(§1)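 Kinase activity is measured on a dual-labelled synthetic peptide by FRET. ATP is supplied as an 800 μM solution for c-Src and a 60 μM solution for Syk. Compound is tested at four added concentrations, 4 to 0.004 μg/mL.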

In series [3] the target is p38 MAPKα isoform (MAPK14) (Homo sapiens, UniProt Q16539). The experiment in a line: p38 MAPKα enzyme inhibition (FRET, Z-LYTE), Method 1. The series is classed as biochemical. The following applies: Table 4a1. Here is the method: The enzyme inhibitory activities of compounds disclosed herein are determined by FRET using synthetic peptides labelled with both donor and acceptor fluorophores (Z-LYTE, Invitrogen Ltd., Paisley, UK).
The following two assay variants are used for determination of p38 MAPKα inhibition.
The inhibitory activities of test compounds against the p38 MAPKα isoform (MAPK14: Invitrogen), are evaluated indirectly by determining the level of activation/phosphorylation of the down-stream molecule, MAPKAP-K2. The p38 MAPKα protein (80 ng/mL, 2.5 μL) is mixed with the test compound (2.5 μL of either 4 μg/mL, 0.4 μg/mL, 0.04 μg/mL or 0.004 μg/mL) for 2 hr at RT. […] The mixture is incubated for 1 hr at RT. Development reagent (protease, 5 μL) is added for 1 hr prior to detection in a fluorescence microplate reader (Varioskan® Flash, ThermoFisher Scientific).
In all cases, the site-specific protease cleaves non-phosphorylated peptide only and eliminates the FRET signal. Phosphorylation levels of each reaction are calculated using the ratio of coumarin emission (donor) over fluorescein emission (acceptor), for which high ratios indicate high phosphorylation and low ratios indicate low phosphorylation levels.

For series [4], the system named is ICAM-1 expression, BEAS2B cells. As to the kind of experiment: Poly I:C-induced ICAM-1 expression in BEAS2B cells. The series is classed as cell-based. The note with it: Homo sapiens, BEAS-2B; read-out: Poly IC induced ICAM1 in BEAS2B, IC50. In outline:
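Cell-based ELISA for surface ICAM-1 in human BEAS2B cells 18 h after transfection with the RNA-virus mimic poly I:C (1 μg/mL, with Oligofectamine), compounds added 2 h beforehand. OD450–655 divided by Crystal Violet OD595 per well; percent inhibition relative to vehicle.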

In a further series the target is cSrc (Homo sapiens, UniProt P12931). The experiment in a line: c-Src enzyme inhibition (FRET). The series is classed as biochemical. In outline: as §1
In series [5] the test system is IL-8 release, d-U937 cells. As to the kind of experiment: LPS-induced IL-8 release in d-U937 cells. In kind it is cell-based. The following applies: Homo sapiens, dU937. The gist of the method: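 IL-8 release after a 4 hr challenge with LPS (0.1 μg/mL, E. coli 0111:B4) following a 2 hr compound pretreatment. Cells were human U937 monocytes differentiated to macrophage-type with PMA 100 ng/mL for 48–72 hr. Relative 50% effective concentration derived from concentration–response data.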

For series [6], the target named is T2, human ether a go-go (hERG) channel (Homo sapiens, UniProt Q12809).
T2 construct: a Chinese Hamster Lung cell line stably expressing the full length hERG channel
As to the kind of experiment: hERG inhibition (IonWorks patch clamp electrophysiology). In kind it is cell-based. The note with it: maximum final assay concentration 3 μM. Here is the method:
Eight-point concentration curves were generated using serial 3-fold dilutions from the maximum final assay concentration (3 μM). Electrophysiological recordings were made from a Chinese Hamster Lung cell line stably expressing the full length hERG channel. Single cell ionic currents were measured in the perforated patch clamp configuration (100 μg/mL) amphotericin) at room temperature (21-23° C.) using an IonWorks Quattro instrument. The internal solution contained (mM): 140 KCl, 1 MgCl2, 1 EGTA, 20 HEPES and was buffered to pH 7.3. The external solution contained (mM):138 NaCl, 2.7 KCl, 0.9 CaCl2, 0.5 MgCl2, 8 Na2HPO4, 1.5 KH2PO4, also buffered to pH 7.3. Cells were clamped at a holding potential of −70 mV for 30 s and then stepped to +40 mV for 1 s. This was followed by a hyperpolarising step of 1s to −30 mV to evoke the hERG tail current. This sequence was repeated 5 times at a frequency of 0.25 Hz. Currents were measured from the tail step at the 5th pulse, and referenced to the holding current. Compounds were then incubated for 6-7 minutes prior to a second measurement of the hERG signal using an identical pulse train. Eight-point concentration curves were generated using serial 3-fold dilutions from the maximum final assay concentration (3 μM).

For the next series, the system named is IL-8 release, HT29 cells. As to the kind of experiment: IL-1β-induced IL-8 release in HT29 cells. In kind it is cell-based. The following applies: Homo sapiens, HT-29; IL-1β stimulated; read-out: IC50 Values for Inhibition of Cytokine Release, HT29 cells, IL-8. The protocol: (d) IL-1β-Induced IL-8 Release in HT29 Cells
HT29 cells, a human colon adenocarcinoma cell line, are plated in a 96 well plate (24 hrs) and pre-treated with compounds at the desired concentration for 2 hours before addition of 5 ng/ml of IL-1β (Abeam) for 24 hours, Supernatants are harvested for IL-8 quantification by Sandwich ELISA (Duo-set, R&D System). The IC50 is determined from the dose response curve.

The test system of the next series is IL-8 release, PBMCs. As to the kind of experiment: LPS-induced IL-8 release in PBMC cells. In kind it is cell-based. The note with it: Homo sapiens, LPS stimulated, read-out: IC50 Values for Inhibition of Cytokine Release, PBMCs, IL-8. The gist of the method: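 PBMCs from healthy donors pretreated with compound for 2 h, then stimulated with 1 ng/ml LPS (E. coli 0111:B4) for 24 h at 37 °C, 5% CO2. Supernatant IL-8 and TNFα measured by sandwich ELISA with fluorescence read-out.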

For a further series, the system named is IL-2 release, PBMCs. As to the kind of experiment: IL-2 release in CD3/CD28 stimulated PBMC cells. In kind it is cell-based. The following applies: Homo sapiens, read-out: IC50 Values for Inhibition of Cytokine Release, PBMCs, IL-2. The protocol: (§2) (c) IL-2 and IFN Gamma Release in CD3/CD28 Stimulated PBMC Cells
(§3) PBMCs from healthy subjects are separated from whole blood using a density gradient (Lymphoprep, Axis-Shield Healthcare). Cells are added to a 96 well plate pre-coated with a mixture of […] monoclonal antibodies (0.3 ug/ml eBioscience and 3 ug/ml BD Pharmingen respectively). Compound at the desired concentration is then added to the wells and the plate left for 3 days under normal tissue culture conditions. Supernatants are harvested and IL-2 and IFN gamma release determined by Sandwich ELISA (Duo-set, R&D System). The IC50 is determined from the dose response curve.

A further series concerns PBMC cells. As to the kind of experiment: Cell mitosis assay. The following applies: Homo sapiens, read-out: % Inhibition of mitosis in PBMC cells at 5 μg/mL. The series is classed as cell-based. In outline:
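Healthy-donor PBMCs (3 million cells per sample) stimulated with 2% PHA for 48 hr, then exposed 20 hr to varying compound concentrations. Demecolcine (0.1 μg/mL) added 2 hr before collection to arrest cells in metaphase; read by flow cytometry gated on lymphocytes.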

The test system of a further series is IFN gamma release, PBMCs. The experiment in a line: IFN gamma release in CD3/CD28 stimulated PBMC cells. In kind it is cell-based. The note with it: Homo sapiens, read-out: IC50 Values for Inhibition of Cytokine Release, PBMCs, IFNγ. Here is the method:
as §2, §3

Series [7] addresses T1, GSK3α. As to the kind of experiment: GSK 3α enzyme inhibition (FRET), Method 2. The series is classed as biochemical. The note with it: Table 4a2, different laboratory.
[8] abbreviates: Table 4c1, read-out: LPS Induced Release of Cytokine in d-U937 Cells, IL-8 IC50.
Setting [9] is: Table 4a2, different laboratory.
Where [10] appears, read: Table 4c2, different laboratory, read-out: IC50 Values for Inhibition of Cytokine Release, dU937 cells, IL-8.

Each structure is given as a SMILES string. Like-named read-outs stand apart in the source and are kept apart here. Some results are limits rather than exact numbers.

Chain of cSrc (P12931 whole entry): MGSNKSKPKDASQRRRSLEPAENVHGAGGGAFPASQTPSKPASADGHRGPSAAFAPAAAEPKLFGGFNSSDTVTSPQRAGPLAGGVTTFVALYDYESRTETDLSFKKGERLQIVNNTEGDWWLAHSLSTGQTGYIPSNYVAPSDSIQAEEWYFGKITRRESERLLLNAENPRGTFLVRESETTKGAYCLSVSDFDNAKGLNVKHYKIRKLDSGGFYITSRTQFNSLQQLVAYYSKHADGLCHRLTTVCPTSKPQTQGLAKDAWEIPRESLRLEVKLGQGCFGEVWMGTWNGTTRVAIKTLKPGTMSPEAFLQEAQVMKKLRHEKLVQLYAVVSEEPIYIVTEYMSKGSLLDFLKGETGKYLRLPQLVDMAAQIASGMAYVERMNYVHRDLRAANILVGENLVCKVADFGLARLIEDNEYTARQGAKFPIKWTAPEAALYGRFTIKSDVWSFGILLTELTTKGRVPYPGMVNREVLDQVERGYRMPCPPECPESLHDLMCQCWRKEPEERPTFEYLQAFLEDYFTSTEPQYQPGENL
T1 sequence (P49840 whole entry): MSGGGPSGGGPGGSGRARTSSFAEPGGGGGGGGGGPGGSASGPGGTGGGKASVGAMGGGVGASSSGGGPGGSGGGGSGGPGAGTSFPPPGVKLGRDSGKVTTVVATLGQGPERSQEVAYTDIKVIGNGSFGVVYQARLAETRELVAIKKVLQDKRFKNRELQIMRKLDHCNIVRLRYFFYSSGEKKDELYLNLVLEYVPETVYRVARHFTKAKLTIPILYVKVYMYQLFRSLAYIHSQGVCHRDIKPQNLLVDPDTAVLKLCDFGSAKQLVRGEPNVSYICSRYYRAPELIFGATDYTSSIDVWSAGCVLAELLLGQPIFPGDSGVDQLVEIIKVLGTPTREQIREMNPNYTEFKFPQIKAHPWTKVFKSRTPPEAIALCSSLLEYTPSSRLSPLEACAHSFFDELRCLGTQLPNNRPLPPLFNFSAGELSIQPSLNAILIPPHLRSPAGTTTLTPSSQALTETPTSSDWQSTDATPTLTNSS
Chain of p38 MAPKα isoform (MAPK14) (Q16539 whole entry, canonical isoform): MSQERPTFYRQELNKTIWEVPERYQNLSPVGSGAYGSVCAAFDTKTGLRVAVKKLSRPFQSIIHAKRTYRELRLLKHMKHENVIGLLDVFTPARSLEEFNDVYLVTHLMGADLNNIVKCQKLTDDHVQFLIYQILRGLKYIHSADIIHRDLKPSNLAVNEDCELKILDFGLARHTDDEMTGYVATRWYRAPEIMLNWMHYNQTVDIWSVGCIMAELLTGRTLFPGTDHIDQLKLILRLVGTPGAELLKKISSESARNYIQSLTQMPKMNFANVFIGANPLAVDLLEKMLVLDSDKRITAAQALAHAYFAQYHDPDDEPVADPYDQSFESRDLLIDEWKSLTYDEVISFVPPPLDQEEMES
T2 sequence (Q12809 whole entry): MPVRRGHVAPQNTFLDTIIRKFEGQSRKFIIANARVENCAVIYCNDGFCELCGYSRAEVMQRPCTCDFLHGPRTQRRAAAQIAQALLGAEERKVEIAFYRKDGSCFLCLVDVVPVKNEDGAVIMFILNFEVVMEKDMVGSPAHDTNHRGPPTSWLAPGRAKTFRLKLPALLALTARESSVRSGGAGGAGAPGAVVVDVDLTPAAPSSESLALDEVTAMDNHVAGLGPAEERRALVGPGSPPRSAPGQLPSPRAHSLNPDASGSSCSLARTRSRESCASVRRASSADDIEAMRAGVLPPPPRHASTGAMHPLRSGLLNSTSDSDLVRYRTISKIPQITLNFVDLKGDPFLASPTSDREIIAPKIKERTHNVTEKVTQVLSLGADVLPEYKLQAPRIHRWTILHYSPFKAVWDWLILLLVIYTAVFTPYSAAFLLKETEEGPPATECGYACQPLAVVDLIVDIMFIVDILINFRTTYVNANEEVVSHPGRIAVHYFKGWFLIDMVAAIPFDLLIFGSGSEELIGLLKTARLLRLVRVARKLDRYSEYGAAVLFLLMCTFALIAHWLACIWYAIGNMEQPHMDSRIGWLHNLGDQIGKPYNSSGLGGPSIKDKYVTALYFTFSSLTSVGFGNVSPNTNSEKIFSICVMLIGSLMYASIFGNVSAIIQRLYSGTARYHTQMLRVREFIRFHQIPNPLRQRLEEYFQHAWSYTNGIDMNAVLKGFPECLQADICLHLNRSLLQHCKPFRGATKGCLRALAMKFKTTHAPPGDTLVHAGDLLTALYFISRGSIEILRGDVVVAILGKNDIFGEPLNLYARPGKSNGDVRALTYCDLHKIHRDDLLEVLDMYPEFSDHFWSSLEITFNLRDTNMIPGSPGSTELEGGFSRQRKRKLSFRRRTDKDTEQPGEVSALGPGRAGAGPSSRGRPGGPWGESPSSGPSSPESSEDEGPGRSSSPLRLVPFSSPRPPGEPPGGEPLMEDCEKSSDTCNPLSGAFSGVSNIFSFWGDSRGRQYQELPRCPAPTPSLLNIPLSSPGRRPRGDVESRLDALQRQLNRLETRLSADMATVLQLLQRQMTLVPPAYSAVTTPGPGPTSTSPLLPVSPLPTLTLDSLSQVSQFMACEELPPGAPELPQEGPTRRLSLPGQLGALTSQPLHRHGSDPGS

Consider `COc1ccc(Nc2nccc(Oc3ccc(NC(=O)Nc4cc(C(C)(C)C)nn4-c4ccc(C)cc4)c4ccccc34)n2)cc1C(=O)NCCN1CCOCC1` [Example 13, 5-((4-((4-(3-(3-(tert-Butyl)-1-(p-tolyl)-1H-pyrazol-5-yl)ureido)naphthalen-1-yl)oxy)pyrimidin-2-yl)amino)-2-methoxy-N-(2-morpholinoethyl)benzamide], for which the IC50 (usually the concentration that inhibits the measured activity by half) against GSK3α [1] turned out to be 672 nM; against Syk (Table 4a1), 16 nM; in [3], 24 nM; in series [4] it was 1.7 nM; at cSrc (Table 4a1), 2 nM; in series [5] (setting [8]), 0.3 nM. In the series with d-U937 cells, the “Cell viability at time point in d-U937 cells, 4 h” value was “−ve (−ve and +ve indicate that the value is below and above respectively, the no significant effect threshold, defined as 30% inhibition at 1 μg/mL at the time point indicated)”. In addition, the “Cell viability at time point in d-U937 cells, 24 h” value with d-U937 cells was “−ve (−ve and +ve indicate that the value is below and above respectively, the no significant effect threshold, defined as 30% inhibition at 1 μg/mL at the time point indicated)”. Also, the EC50 in series [2] was found to be 0.4 nM.

On to `COc1ccc(C(=O)NCCN(C)C)cc1Nc1nccc(Oc2ccc(NC(=O)Nc3cc(C(C)(C)C)nn3-c3ccc(C)cc3)c3ccccc23)n1` [Example 29, 3-((4-((4-(3-(3-(tert-butyl)-1-(p-tolyl)-1H-pyrazol-5-yl)ureido)naphthalen-1-yl)oxy)pyrimidin-2-yl)amino)-N-(2-(dimethylamino)ethyl)-4-methoxybenzamide], for which the IC50 against GSK3α [1] was 3210 nM; against Syk (Table 4a1), 147 nM; in [3], < 1 nM; in series [4], 15.1 nM; against cSrc (Table 4a1), < 1 nM; in [5] (setting [8]), 13.7 nM. Also, the “Cell viability at time point in d-U937 cells, 4 h” value with d-U937 cells was “−ve (−ve and +ve indicate that the value is below and above respectively, the no significant effect threshold, defined as 30% inhibition at 1 μg/mL at the time point indicated)”. Moreover, in the series on d-U937 cells, the “Cell viability at time point in d-U937 cells, 24 h” value is “−ve (−ve and +ve indicate that the value is below and above respectively, the no significant effect threshold, defined as 30% inhibition at 1 μg/mL at the time point indicated)”. Also, in series [2], the EC50 was 3.8 nM.

On to `C#Cc1cc(Nc2nccc(Oc3ccc(NC(=O)Nc4cc(C(C)(C)C)nn4-c4ccc(C)cc4)c4ccccc34)n2)cc(C(=O)NCCN2CCOCC2)c1` [Example 75, 3-((4-((4-(3-(3-(tert-Butyl)-1-(p-tolyl)-1H-pyrazol-5-yl)ureido)naphthalen-1-yl)oxy)pyrimidin-2-yl)amino)-5-ethynyl-N-(2-morpholinoethyl)benzamide], for which the IC50 in series [6] is > 3000 nM; with IL-8 release, HT29 cells, 1.3 nM; in [2] it was 0.4 nM; on Syk (setting [9]), 28 nM; in the series with IL-8 release, PBMCs, 1 nM; in the series with IL-2 release, PBMCs, 76.9 nM. For the same molecule, the IC50 against cSrc (setting [9]) stood at 11 nM; in series [5] (setting [10]), 0.3 nM; in the series on IFN gamma release, PBMCs it was 3 nM; against GSK3α [7] it was 1370 nM. Further, in the series on PBMC cells, the inhibition at 5 µg/mL was determined as 2.8%.

With `C#Cc1cc(Nc2nccc(Oc3ccc(NC(=O)Nc4cc(C(C)(C)C)nn4-c4ccc(C)cc4)c4ccccc34)n2)cc(C(=O)N[C@@H](C)CN2CCOCC2)c1` [Example 81, (S)-3-((4-((4-(3-(3-(tert-Butyl)-1-(p-tolyl)-1H-pyrazol-5-yl)ureido)naphthalen-1-yl)oxy)pyrimidin-2-yl)amino)-5-ethynyl-N-(1-morpholinopropan-2-yl)benzamide], the concentration for half-maximal inhibition (IC50) in series [6] is > 3000 nM; in the series on IL-8 release, HT29 cells, 7.4 nM; in series [2], 1.4 nM; against Syk (setting [9]), 61 nM; in the series on IL-8 release, PBMCs, 3.2 nM; in the series on IL-2 release, PBMCs, 112 nM. In addition, the 50% inhibitory concentration (IC50) on cSrc (setting [9]) stood at 21 nM; in series [5] (setting [10]), 1.5 nM; in the series with IFN gamma release, PBMCs, 1.8 nM; on GSK3α [7], 10400 nM. Further, in the series with PBMC cells, the inhibition at 5 µg/mL is -2.6%.
